From publication PMC7614683, “A small molecule PI3Kα activator for cardioprotection and neuroregeneration” (Nature, 2023)
Read-outs that look alike come from different tables or passages of the source.

Legend:
Assay in all cases: SelectScreen Z-LYTE kinase activity assay (SI Table 6)
Format in all cases: biochemical
[1] = target: protein kinases of the Z-LYTE panel (Homo sapiens, UniProt P07333)
Procedure, shortened: (§1)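 Kinases in the SelectScreen panel (Adapta, LanthaScreen binding, Z-LYTE formats) were tested against compound at 1 μM. Separately, ATM (100 nM, 5 μM GST-p53, 1 mM ATP, 30 min, 30°C) and mTORC1 (50 nM, 15 μM 4E-BP1, 250 μM ATP, 3 h) were run with 200 μM compound. Those products were read on Phos-tag gels.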

[2] = target: T1, protein kinases of the Z-LYTE panel (Homo sapiens, UniProt Q06418)
T1 sequence (Q06418 41-890): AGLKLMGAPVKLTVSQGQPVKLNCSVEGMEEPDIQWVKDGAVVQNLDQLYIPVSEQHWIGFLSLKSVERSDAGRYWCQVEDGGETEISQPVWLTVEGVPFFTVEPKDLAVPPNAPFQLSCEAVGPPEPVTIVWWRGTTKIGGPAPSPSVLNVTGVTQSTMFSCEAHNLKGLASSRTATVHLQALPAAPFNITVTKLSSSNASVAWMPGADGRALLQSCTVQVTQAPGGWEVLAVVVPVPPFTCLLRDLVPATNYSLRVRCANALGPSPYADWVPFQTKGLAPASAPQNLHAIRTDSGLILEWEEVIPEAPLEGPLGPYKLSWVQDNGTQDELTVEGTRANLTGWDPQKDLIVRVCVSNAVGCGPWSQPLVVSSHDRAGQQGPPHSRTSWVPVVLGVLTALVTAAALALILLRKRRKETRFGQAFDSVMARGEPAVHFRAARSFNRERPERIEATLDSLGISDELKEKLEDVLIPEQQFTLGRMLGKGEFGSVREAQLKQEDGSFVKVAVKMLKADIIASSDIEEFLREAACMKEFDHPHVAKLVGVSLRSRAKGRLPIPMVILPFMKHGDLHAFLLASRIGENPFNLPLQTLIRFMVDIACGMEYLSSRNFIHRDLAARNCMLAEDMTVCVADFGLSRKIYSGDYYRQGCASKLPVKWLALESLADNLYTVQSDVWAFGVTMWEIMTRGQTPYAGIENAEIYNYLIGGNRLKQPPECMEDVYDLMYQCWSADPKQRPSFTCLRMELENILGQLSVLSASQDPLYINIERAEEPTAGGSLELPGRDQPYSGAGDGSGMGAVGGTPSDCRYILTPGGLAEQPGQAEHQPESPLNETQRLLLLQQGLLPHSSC
Procedure, shortened: as §1

[3] = target: protein kinases of the Z-LYTE panel (Homo sapiens, UniProt Q13464)
Procedure, shortened: as §1

[4] = target: T2, protein kinases of the Z-LYTE panel (Homo sapiens, UniProt P36896)
T2 sequence (P36896 24-505): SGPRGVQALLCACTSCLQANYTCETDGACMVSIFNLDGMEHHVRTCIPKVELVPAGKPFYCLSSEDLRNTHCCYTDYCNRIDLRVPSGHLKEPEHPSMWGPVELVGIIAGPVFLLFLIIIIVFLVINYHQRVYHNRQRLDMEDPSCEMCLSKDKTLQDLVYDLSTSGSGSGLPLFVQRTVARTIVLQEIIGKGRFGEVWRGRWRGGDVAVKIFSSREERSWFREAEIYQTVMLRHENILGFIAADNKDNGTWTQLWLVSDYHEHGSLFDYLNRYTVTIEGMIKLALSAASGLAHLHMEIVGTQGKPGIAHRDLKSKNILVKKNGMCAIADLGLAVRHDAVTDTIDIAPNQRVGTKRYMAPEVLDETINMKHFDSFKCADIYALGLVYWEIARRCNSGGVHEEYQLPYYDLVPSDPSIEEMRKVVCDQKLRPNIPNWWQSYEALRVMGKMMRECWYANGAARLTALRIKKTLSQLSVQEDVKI
Procedure, shortened: as §1

[5] = target: protein kinases of the Z-LYTE panel (Homo sapiens, UniProt Q04759)
Procedure, shortened: as §1

Sequence of protein kinases of the Z-LYTE panel (Homo sapiens, UniProt Q04759) (Q04759 whole entry): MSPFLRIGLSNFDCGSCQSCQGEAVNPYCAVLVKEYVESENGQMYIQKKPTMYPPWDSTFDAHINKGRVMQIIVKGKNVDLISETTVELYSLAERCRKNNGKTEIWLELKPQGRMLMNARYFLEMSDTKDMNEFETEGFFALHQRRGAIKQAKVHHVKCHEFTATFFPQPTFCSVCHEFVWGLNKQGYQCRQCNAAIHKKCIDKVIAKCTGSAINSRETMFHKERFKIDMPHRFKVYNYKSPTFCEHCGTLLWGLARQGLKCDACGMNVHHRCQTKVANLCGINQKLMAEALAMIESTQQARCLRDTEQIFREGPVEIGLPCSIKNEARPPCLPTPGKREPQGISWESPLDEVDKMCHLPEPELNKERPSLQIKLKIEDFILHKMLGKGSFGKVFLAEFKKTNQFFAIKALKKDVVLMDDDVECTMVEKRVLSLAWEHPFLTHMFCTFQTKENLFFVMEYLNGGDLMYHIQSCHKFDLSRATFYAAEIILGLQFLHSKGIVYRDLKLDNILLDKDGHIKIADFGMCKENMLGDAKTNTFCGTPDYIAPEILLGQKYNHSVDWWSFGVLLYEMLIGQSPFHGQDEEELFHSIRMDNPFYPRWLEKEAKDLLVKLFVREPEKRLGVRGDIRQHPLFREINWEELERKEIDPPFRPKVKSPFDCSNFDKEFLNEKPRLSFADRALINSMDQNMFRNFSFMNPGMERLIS
Sequence of protein kinases of the Z-LYTE panel (Homo sapiens, UniProt P07333) (P07333 20-972): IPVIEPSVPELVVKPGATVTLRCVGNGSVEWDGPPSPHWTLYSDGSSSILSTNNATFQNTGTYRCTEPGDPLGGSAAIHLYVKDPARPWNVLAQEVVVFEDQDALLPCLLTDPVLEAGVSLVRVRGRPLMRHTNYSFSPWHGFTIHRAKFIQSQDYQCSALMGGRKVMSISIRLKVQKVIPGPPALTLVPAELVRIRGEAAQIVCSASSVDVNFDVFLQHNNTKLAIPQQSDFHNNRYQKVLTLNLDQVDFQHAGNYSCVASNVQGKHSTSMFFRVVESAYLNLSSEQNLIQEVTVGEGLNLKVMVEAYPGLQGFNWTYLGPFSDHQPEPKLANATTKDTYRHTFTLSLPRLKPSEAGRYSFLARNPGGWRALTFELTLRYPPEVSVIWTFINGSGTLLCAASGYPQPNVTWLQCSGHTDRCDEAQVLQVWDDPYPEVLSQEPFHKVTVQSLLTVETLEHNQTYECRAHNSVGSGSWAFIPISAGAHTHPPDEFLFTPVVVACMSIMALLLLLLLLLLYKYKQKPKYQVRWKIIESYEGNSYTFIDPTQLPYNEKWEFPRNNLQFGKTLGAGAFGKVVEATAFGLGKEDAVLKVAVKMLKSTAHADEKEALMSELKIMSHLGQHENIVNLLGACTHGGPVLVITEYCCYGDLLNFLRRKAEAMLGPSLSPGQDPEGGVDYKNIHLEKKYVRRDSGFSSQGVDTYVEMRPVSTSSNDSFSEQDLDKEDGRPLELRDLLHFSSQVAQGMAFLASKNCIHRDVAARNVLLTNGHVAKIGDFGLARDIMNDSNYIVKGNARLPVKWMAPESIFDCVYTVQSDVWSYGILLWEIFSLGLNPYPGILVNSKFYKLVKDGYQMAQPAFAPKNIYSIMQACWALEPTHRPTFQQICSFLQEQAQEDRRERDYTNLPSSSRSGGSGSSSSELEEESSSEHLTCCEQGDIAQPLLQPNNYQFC
Sequence of protein kinases of the Z-LYTE panel (Homo sapiens, UniProt Q13464) (Q13464 whole entry): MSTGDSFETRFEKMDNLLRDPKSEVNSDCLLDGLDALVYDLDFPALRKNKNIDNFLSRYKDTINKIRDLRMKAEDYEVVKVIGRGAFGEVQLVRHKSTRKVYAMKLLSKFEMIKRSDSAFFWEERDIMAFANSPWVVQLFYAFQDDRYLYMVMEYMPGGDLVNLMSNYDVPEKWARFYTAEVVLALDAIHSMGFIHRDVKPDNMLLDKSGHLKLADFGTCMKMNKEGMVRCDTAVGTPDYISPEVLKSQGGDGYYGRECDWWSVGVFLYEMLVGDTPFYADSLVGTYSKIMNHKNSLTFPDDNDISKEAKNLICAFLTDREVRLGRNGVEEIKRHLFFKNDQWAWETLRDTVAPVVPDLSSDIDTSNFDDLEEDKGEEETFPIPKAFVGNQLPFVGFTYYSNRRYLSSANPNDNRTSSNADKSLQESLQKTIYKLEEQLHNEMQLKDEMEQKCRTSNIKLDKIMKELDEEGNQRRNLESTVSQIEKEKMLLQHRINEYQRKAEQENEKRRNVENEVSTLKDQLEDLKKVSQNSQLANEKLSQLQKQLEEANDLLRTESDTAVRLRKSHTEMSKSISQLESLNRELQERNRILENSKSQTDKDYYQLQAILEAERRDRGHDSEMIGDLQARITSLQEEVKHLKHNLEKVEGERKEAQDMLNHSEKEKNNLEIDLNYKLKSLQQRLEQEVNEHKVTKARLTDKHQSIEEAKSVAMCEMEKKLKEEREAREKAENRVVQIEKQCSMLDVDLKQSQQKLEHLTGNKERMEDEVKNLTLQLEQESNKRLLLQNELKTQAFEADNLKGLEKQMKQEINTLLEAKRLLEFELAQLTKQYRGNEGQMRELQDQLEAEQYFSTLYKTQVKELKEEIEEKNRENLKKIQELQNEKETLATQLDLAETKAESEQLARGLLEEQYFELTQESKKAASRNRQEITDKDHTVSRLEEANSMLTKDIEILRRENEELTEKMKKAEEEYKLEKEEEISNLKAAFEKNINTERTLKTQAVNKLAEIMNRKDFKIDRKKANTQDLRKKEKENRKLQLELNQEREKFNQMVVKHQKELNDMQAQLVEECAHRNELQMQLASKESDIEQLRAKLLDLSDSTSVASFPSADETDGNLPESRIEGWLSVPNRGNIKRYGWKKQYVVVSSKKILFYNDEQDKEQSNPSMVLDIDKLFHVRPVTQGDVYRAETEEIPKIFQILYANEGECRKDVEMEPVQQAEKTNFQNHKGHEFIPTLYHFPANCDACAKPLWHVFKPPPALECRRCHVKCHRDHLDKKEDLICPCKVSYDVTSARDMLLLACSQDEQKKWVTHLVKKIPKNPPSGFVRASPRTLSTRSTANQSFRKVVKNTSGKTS

Question: Which results are given for `CCN1CCN(c2ccc(Nc3cc(Nc4cccc5c4N(C(C)=O)CC5)ccn3)cc2)CC1` [Compound 1938]?
Answer: inhibition at 1 µM ([1]; read-out: % Inhibition Point 1): 15%; inhibition at 1 µM ([1]; read-out: % Inhibition Point 2): 15%; inhibition at 1 µM ([1]; read-out: % Inhibition mean): 15%; inhibition at 1 µM ([2]; read-out: % Inhibition Point 1): 8%; inhibition at 1 µM ([2]; read-out: % Inhibition Point 2): 7.56%; inhibition at 1 µM ([2]; read-out: % Inhibition mean): 7.59%; inhibition at 1 µM ([3]; read-out: % Inhibition Point 1): 0.45%; inhibition at 1 µM ([3]; read-out: % Inhibition Point 2): 0.0147%; inhibition at 1 µM ([3]; read-out: % Inhibition mean): 0.233%; inhibition at 1 µM ([4]; read-out: % Inhibition Point 1): -27%; inhibition at 1 µM ([4]; read-out: % Inhibition Point 2): -3%; inhibition at 1 µM ([4]; read-out: % Inhibition mean): -15%; inhibition at 1 µM ([5]; read-out: % Inhibition Point 1): 12%; inhibition at 1 µM ([5]; read-out: % Inhibition Point 2): 6.62%; inhibition at 1 µM ([5]; read-out: % Inhibition mean): 9%
